These results are taken from patent US20260241046A1, “PROSTATE-SPECIFIC MEMBRANE ANTIGEN RECEPTOR-TARGETING RADIOPHARMACEUTICALS AND USES THEREOF” (Nuclidium AG, priority 2024, published 2026).

For data set [1] the following is noted: approved PET radiotracers, for comparison; cited from earlier work.
Data set [2] concerns the target T1, PSMA (Homo sapiens, UniProt Q04609).
T1 construct: endogenous in cells; host or cells: LNCaP
The experiment in a line: Binding affinity (IC50), competition with [^125I]I-BAKuE on LNCaP cells. The following applies: 0.2 nM [^125I]I-BAKuE, 1 hour on ice. The procedure:
The binding affinity of NODAGA-PSMA I&T was determined by measuring IC50 by labelling the precursor with natural copper (^natCu). […] The radioiodinated ((S)-1-carboxy-5-(4-(-^125I-iodo-benzamido) pentyl) carbamoyl)-L-glutamic acid ([^125I]I-BAKuE) was used as reference radioligand. The assay was performed on LNCaP cells, human prostate cancer cells characterized by high expression levels of PSMA.
^natCu-NODAGA-PSMA I&T was produced by dissolving NODAGA-PSMA I&T (0.7 μmol) in 0.30 mL of ammonium acetate (0.5 M, pH 8), followed by the addition of 0.15 mL CuCl2 in 0.05 M hydrochloric acid. The reaction mixture was incubated for 15 min at 95° C. The product was purified from unlabeled ^natCu using a SepPak Classic C18 cartridge (Waters, Eschborn, Germany), washed with water, and eluted with 2 mL methanol. After evaporation of methanol, the product was reconstituted in 0.3 mg/mL 30% (v/v) acetonitrile in water.
The assay was performed on LNCaP cells seeded in 24-well plates. The cells were incubated with increasing concentrations of ^natCu-NODAGA-PSMA I&T (ranging from 0.1 up to 100 nM) in the presence of 0.2 nM [^125]I-BAKuE. After 1 hour of incubation on ice, the unbound (free) [^125I]I-BAKuE was collected by removing the medium (EMEM EBS) and the cells were detached with 1 M sodium hydroxide for counting (bound radioligand). […]

A short description of data set [3]: Storage of lyophilized precursor. Type of data set: physicochemical. The conditions noted are these: lyophilized powder, kept at 25° C. for up to 14 days.
Data set [4] relates to CD-1 mice. The data set is described as follows: Extended single-dose toxicity study (GLP). Type of data set: in vivo. The protocol:
(§1) The study was designed as an extended single-dose toxicity study in one rodent species and performed under GLP conditions. NODAGA-PSMA I&T toxicity was evaluated after intravenous administration on day 1 of the study, followed by an observation period of 2 weeks. 60 (30 males and 30 females) CD-1 mice were divided into one dose group and one control group. The test item was administered once by i.v. administration into the tail vein. In each of the two groups, (I) 10 male and 10 female animals were euthanized the day after dosing, (II) 5 male and 5 female recovery animals were kept for an observation period of 2 weeks after dosing to detect possible delayed occurrence or persistence of, or recovery from toxic effects.
(§2) The dose animals' group was injected with 5 mg/kg NODAGA-PSMA I&T in 5% dimethyl sulfoxide (application volume 5 mL/kg) as a vehicle. The control group underwent injection of the vehicle alone (5 mL/kg). The animals were observed daily for signs of toxicity and morbidity/mortality. All animals were sacrificed for necropsy. Blood was taken at the time of necropsies to analyze hematological and clinical biochemistry parameters and urine for urinalysis. The wet weight of a tissue subset was taken, and a set of organs/tissues was preserved. A complete histopathological evaluation of the tissues was performed on treated and control animals.

Data set [5] is described as follows: Extended single-dose toxicity study (GLP). It is filed as in vivo. The following applies: both sexes, mouse, in vivo, iv, 5 mg/kg; single i.v. dose, CD-1 mice; read-out: no adverse effect level (NOAEL). The protocol:
as §1, §2

A short description of data set [6]: Pharmacokinetics in healthy mice. Type of data set: in vivo. The protocol:
The pharmacokinetics of the investigated radiopharmaceutical was evaluated in healthy female BALB/c mice from 1 to 24 hours. For the latest time points (12 and 24 hours), NODAGA-PSMA I&T was radiolabeled with ^64Cu obtained from the Tübingen University Hospital. The use of a different PET copper isotope is justified by the longer half-life of ^64Cu (t1/2=12.7 hours), which is more appropriate for tests that include delayed time points. Additionally, using an isotope from the same element ensures that the radiopharmaceutical retains its chemical and physical properties, guaranteeing consistency in the study. Mice were injected i.v. with 4 MBq (200 pmol) of [^61/64Cu]Cu-NODAGA-PSMA I&T diluted to 100 μL with saline solution. The data were combined with the results obtained from the groups of xenografts at 1 and 4 hours post-injection, as the biodistribution in nude mice was the same as in the healthy mice. The results are presented in Table 27 and are expressed as mean±standard deviation.

Setting [7] is: 5 mg/kg i.v., CD-1 mice, transitory, non-adverse.
[8] abbreviates: 12 hours post-injection (^64Cu).
Setting [9] is: 24 hours post-injection (^64Cu).

Broadly, the IC50 is the concentration that gives 50% inhibition. Low readings indicate greater potency, high ones weaker potency. By NOAEL is commonly meant the highest tested level that showed no adverse finding.

T1 sequence (Q04609 whole entry): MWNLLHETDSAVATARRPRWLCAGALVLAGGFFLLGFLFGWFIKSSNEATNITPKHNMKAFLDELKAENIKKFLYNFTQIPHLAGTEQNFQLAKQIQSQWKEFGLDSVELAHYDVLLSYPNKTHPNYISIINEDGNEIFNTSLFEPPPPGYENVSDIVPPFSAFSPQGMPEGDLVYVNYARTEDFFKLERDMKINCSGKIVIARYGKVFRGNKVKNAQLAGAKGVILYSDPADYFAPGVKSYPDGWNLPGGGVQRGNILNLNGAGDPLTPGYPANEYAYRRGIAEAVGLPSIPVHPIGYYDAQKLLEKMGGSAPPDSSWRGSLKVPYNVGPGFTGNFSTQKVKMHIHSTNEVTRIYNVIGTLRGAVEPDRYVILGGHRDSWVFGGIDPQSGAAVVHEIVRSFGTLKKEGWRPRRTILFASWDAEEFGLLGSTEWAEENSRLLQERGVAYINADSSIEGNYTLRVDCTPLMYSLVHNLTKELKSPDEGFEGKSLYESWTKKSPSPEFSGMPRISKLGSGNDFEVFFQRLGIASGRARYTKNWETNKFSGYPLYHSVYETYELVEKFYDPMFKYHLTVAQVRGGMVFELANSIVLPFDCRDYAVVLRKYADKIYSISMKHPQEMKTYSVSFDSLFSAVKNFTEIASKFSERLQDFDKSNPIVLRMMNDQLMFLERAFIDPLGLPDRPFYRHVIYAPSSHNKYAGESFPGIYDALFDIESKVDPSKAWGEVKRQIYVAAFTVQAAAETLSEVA

In the case of `O=C([O-])CN(CCN(CC(=O)[O-])Cc1cc(CCC(=O)NCCCCCC(=O)NCCCC[C@H](NC(=O)N[C@@H](CCC(=O)O)C(=O)O)C(=O)O)ccc1[O-])Cc1cc(CCC(=O)O)ccc1[O-].[68Ga+3].[OH3+]` [[^68Ga]Ga-PSMA-11], the Effective Dose in data set [1] is reported as 0.023 mSv/MBq.

The compound `O=C(O)CC[C@H](NC(=O)N[C@@H](CCCCNC(=O)CCCCCCC(=O)NCCCC[C@@H](NC(=O)[C@@H](Cc1ccccc1)NC(=O)[C@@H](Cc1ccc(O)c(I)c1)NC(=O)CC[C@H](C(=O)O)N1CCN2CCN(CC1)CC(=O)[O][Cu][O]C(=O)C2)C(=O)O)C(=O)O)C(=O)O` [^natCu-NODAGA-PSMA I&T] had a 50% inhibitory concentration (IC50) in data set [2] of 9.3 ± 1.8 nM.

Take `O=C(O)CC[C@H](NC(=O)N[C@@H](CCCCNC(=O)c1ccc([18F])nc1)C(=O)O)C(=O)O` [Pylarify]: in data set [1], the Effective Dose is on record as 0.017 mSv/MBq.

As for `O=C(O)CC[C@H](NC(=O)N[C@@H](CCCCNC(=O)CCCCCCC(=O)NCCCC[C@@H](NC(=O)[C@@H](Cc1ccccc1)NC(=O)[C@@H](Cc1ccc(O)c(I)c1)NC(=O)CC[C@H](C(=O)O)N1CCN(CC(=O)O)CCN(CC(=O)O)CC1)C(=O)O)C(=O)O)C(=O)O` [NODAGA-PSMA I&T, NODAGA-(I-y) fk (Sub-KuE)], the degradation on storage result in data set [3] is “no signs of degradation”. In data set [4] (5 mg/kg i.v., CD-1 mice), the clinical tolerance entry is on record as “clinically well-tolerated”, the “effects on body weight gain or food consumption” value was “No effects on body weight gain or food consumption were noted”, the “effects on organ weights” value is given as “No adverse effects on organ weights were noted” and the “macroscopic or microscopic findings” value was “No macroscopic or microscopic findings that could be attributed to treatment”. Moreover, the “treatment-related mortality or acute adverse effect” value in data set [4] (5 mg/kg i.v., CD-1 mice) was “no treatment-related mortality or acute adverse effect was registered”. Also, in data set [4] (setting [7]), the glucose level entry was “decrease in glucose level”, the platelet count entry is “decrease in platelet count” and the potassium level entry is on record as “increase in potassium level”. Also, in data set [4] (versus intended average patient dose 0.4 μg/kg, with dose conversion factor), the safety ratio was determined as 1000 times. In data set [5], the no-observed-adverse-effect level (NOAEL) at 2 weeks was 5 mg/kg.

On to `O=C([O-])CN1CCN(CC(=O)[O-])CCN([C@H](CCC(=O)N[C@H](Cc2ccc(O)c(I)c2)C(=O)N[C@H](Cc2ccccc2)C(=O)N[C@H](CCCCNC(=O)CCCCCCC(=O)NCCCC[C@H](NC(=O)N[C@@H](CCC(=O)O)C(=O)O)C(=O)O)C(=O)O)C(=O)O)CC1.[Cu+2]` [[^61/64Cu]Cu-NODAGA-PSMA I&T], for which, in data set [6] (1 hour post-injection), the “Biodistribution healthy mice, Adrenal” value was found to be 14.38 ± 4.39 % AI/g; the “Biodistribution healthy mice, Blood” value is listed as 0.33 ± 0.09 % AI/g; the “Biodistribution healthy mice, Femur” value turned out to be 2.48 ± 0.97 % AI/g; the “Biodistribution healthy mice, Heart” value turned out to be 0.49 ± 0.12 % AI/g. Besides, in data set [6] (1 hour post-injection), the “Biodistribution healthy mice, Intestine” value came out at 2.11 ± 0.85 % AI/g; the “Biodistribution healthy mice, Kidneys” value was 124 ± 21 % AI/g; the “Biodistribution healthy mice, Liver” value is reported as 1.12 ± 0.25 % AI/g; the “Biodistribution healthy mice, Lung” value is 1.49 ± 0.45 % AI/g. In data set [6] (1 hour post-injection), the “Biodistribution healthy mice, Muscles” value is 0.99 ± 0.30 % AI/g; the “Biodistribution healthy mice, Pancreas” value is reported as 1.37 ± 0.90 % AI/g; the “Biodistribution healthy mice, Salivary glands” value is 1.89 ± 0.28 % AI/g; the “Biodistribution healthy mice, Spleen” value is recorded as 9.33 ± 3.81 % AI/g. Also, in data set [6] (1 hour post-injection), the “Biodistribution healthy mice, Stomach” value came out at 1.12 ± 0.15 % AI/g. Besides, in data set [6] (4 hours post-injection), the “Biodistribution healthy mice, Adrenal” value worked out at 7.31 ± 2.76 % AI/g; the “Biodistribution healthy mice, Blood” value is listed as 0.11 ± 0.03 % AI/g; the “Biodistribution healthy mice, Femur” value is 1.34 ± 0.38 % AI/g; the “Biodistribution healthy mice, Heart” value is given as 0.25 ± 0.06 % AI/g. In addition, in data set [6] (4 hours post-injection), the “Biodistribution healthy mice, Intestine” value is 1.12 ± 0.48 % AI/g; the “Biodistribution healthy mice, Kidneys” value is 94 ± 12 % AI/g; the “Biodistribution healthy mice, Liver” value is given as 0.88 ± 0.25 % AI/g; the “Biodistribution healthy mice, Lung” value was determined as 0.68 ± 0.22 % AI/g. Also, in data set [6] (4 hours post-injection), the “Biodistribution healthy mice, Muscles” value was determined as 0.45 ± 0.18 % AI/g; the “Biodistribution healthy mice, Pancreas” value turned out to be 0.55 ± 0.16 % AI/g; the “Biodistribution healthy mice, Salivary glands” value came out at 0.58 ± 0.12 % AI/g; the “Biodistribution healthy mice, Spleen” value worked out at 2.35 ± 1.45 % AI/g. Also, the “Biodistribution healthy mice, Stomach” value in data set [6] (4 hours post-injection) is 0.72 ± 0.15 % AI/g. Also, in data set [6] (setting [8]), the “Biodistribution healthy mice, Adrenal” value was 2.99 ± 0.93 % AI/g; the “Biodistribution healthy mice, Blood” value was found to be 0.11 ± 0.01 % AI/g; the “Biodistribution healthy mice, Femur” value is 0.50 ± 0.10 % AI/g; the “Biodistribution healthy mice, Heart” value turned out to be 0.26 ± 0.05 % AI/g. In addition, in data set [6] (setting [8]), the “Biodistribution healthy mice, Intestine” value was 0.94 ± 0.41 % AI/g; the “Biodistribution healthy mice, Kidneys” value was found to be 60 ± 9 % AI/g; the “Biodistribution healthy mice, Liver” value is on record as 0.96 ± 0.18 % AI/g; the “Biodistribution healthy mice, Lung” value stood at 0.52 ± 0.11 % AI/g. In data set [6] (setting [8]), the “Biodistribution healthy mice, Muscles” value is 0.25 ± 0.05 % AI/g; the “Biodistribution healthy mice, Pancreas” value is recorded as 0.28 ± 0.04 % AI/g; the “Biodistribution healthy mice, Salivary glands” value worked out at 0.39 ± 0.05 % AI/g; the “Biodistribution healthy mice, Spleen” value stood at 1.40 ± 0.57 % AI/g. Moreover, the “Biodistribution healthy mice, Stomach” value in data set [6] (setting [8]) worked out at 0.52 ± 0.03 % AI/g. For the same compound, in data set [6] (24 hours post-injection), the “accumulated activity in the kidneys” value is on record as under 20 % IA/g. Moreover, in data set [6] (setting [9]), the “Biodistribution healthy mice, Adrenal” value is recorded as 1.17 ± 0.22 % AI/g; the “Biodistribution healthy mice, Blood” value is 0.08 ± 0.01 % AI/g; the “Biodistribution healthy mice, Femur” value is reported as 0.20 ± 0.05 % AI/g; the “Biodistribution healthy mice, Heart” value is listed as 0.21 ± 0.02 % AI/g. In data set [6] (setting [9]), the “Biodistribution healthy mice, Intestine” value is recorded as 0.46 ± 0.11 % AI/g; the “Biodistribution healthy mice, Kidneys” value was 16.1 ± 4.9 % AI/g; the “Biodistribution healthy mice, Liver” value was found to be 0.84 ± 0.11 % AI/g; the “Biodistribution healthy mice, Lung” value is recorded as 0.32 ± 0.12 % AI/g. In data set [6] (setting [9]), the “Biodistribution healthy mice, Muscles” value is listed as 0.08 ± 0.02 % AI/g; the “Biodistribution healthy mice, Pancreas” value stood at 0.17 ± 0.03 % AI/g; the “Biodistribution healthy mice, Salivary glands” value is given as 0.22 ± 0.05 % AI/g; the “Biodistribution healthy mice, Spleen” value came to 0.58 ± 0.15 % AI/g. Besides, the “Biodistribution healthy mice, Stomach” value in data set [6] (setting [9]) is recorded as 0.31 ± 0.05 % AI/g.
